Article PMC10287566, “Signaling-specific inhibition of the CB1 receptor for cannabis use disorder: phase 1 and phase 2a randomized trials” (Nature Medicine, 2023)

Key:
CD-1 Swiss male mice = experiment: i.v. self-administration of WIN55,212-2 in mice; format: in vivo
Description: Before the start of the self-administration sessions, mice were implanted under anesthesia with catheters into the right jugular vein. […] Mice were trained under a fixed ratio 1 (FR1) schedule of reinforcement.
Two-hour daily self-administration sessions were conducted 6 d per week for 18 d. Mice received corn oil vehicle (2 ml kg^–1) orally on days 9 and 10 to be habituated to the oral gavage procedure.

[1] = Exposure at the highest dose tested in animals without toxicity; format: in vivo; details: human, plasma; exposure limit for humans
Description: The planned dose-escalation schema for the SAD study was based on preclinical pharmacodynamics (PD), safety and toxicology data translated to humans using body surface ratios to ensure a large safety margin. For the MAD study, safety and PK data from the SAD study were used to determine doses. In both studies, all safety data for a given cohort/dose level were evaluated by a Data Safety Monitoring Board that was guided by predefined stopping criteria. The stopping criteria were based on the seriousness and severity combined with frequency of AEs that would lead to either not proceeding to the next dose level or stopping the trial. Dose escalation was also to be halted if the peak plasma levels exceeded that corresponding to the NOAEL in the most sensitive animal species (that is, the rat) in preclinical toxicology studies.

volunteers with CUD = experiment: Phase 2a study, subjective effects of smoked cannabis (VAS, CRF); format: in vivo, human; details: for reduction of cannabis' positive subjective effects compared to placebo: Phase 2a
Description: Participants, in groups of 3−4, completed two 5-d inpatient periods (first period ‘A’ and second period ‘B’) separated by a ≥ 14-d outpatient washout. During the two testing periods, participants received AEF0117 or matching placebo in counterbalanced order (two dosing sequences: AEF0117 first or placebo first). Participants took capsules at 9:00 each day and then smoked a controlled amount of cannabis (approximately 67 mg of THC smoked over 6 min) 3.5 h later (12:30). Ratings of the subjective effects of cannabis were done five times after cannabis administration (20 min, 40 min, 60 min, 90 min and 120 min after cannabis) using a VAS (0–100 mm). […] Participants were told that the cannabis strength could vary from day to day and between participants but that the cannabis they each received at 12:30 that day was the strength available for self-administration that day.
The primary endpoint measuring the good subjective effect of cannabis related to addiction was an ‘Intoxication’ subscale based on a cluster analysis of the 44-item VAS[22], comprising the arithmetic mean of two items: ‘I feel a Good Effect’ and ‘I feel High’[22]. The positive subjective effects of cannabis were further assessed by individual items on the Cannabis Rating Form (CRF)[23], where participants rated the cannabis that they had most recently smoked in terms of ‘Cannabis Cigarette Liking’ and ‘Felt Good Cannabis Effect’ (key secondary endpoints) using a VAS. Cannabis self-administration was evaluated by measuring the number of puffs purchased at each timepoint (key secondary endpoint).
Data from the first dose level were reviewed by the Data Safety Monitoring Board before ascending to the next dose level.
Ratings of subjective effects of cannabis were performed using multiple items from two different instruments: (1) the 44-item VAS[22] and (2) the CRF[23]. Both instruments used visual analog scales (from 0 mm to 100 mm) to measure subjective effects. […] The subscale of the 44-item VAS was initially named the ‘Good Cannabis Effect’ subscale. Before starting the statistical analysis, this subscale was renamed ‘Intoxication’ subscale to avoid confusion with a key secondary endpoint on the CRF labeled ‘Felt Good Cannabis Effect’.
On each study day (days 1–5), at approximately 12:30, participants received an experimenter-administered ‘sample’ of cannabis (two cannabis cigarettes of approximately 800 mg, 7% THC, provided by NIDA). They were guided by an investigator through smoking a total of six 5-s inhalations using a paced-puff smoking procedure, where inhalation duration, time spent holding smoke in the lungs and inter-puff interval were timed. […] To capture a full timecourse of cannabis effects, participants completed the 44-item VAS and a CRF at 12:50, 13:10, 13:30, 14:[…].
As specified in the SAP, the statistical analyses employed an MMRM analysis using the REML as estimation method and structured covariance matrix with compound symmetry; the model included as factors and covariates: sequence, dose, treatment, time and days as fixed effects and subject within sequence as random effect.
Based on the SAP, the following analytical steps depending on results of the various analyses were undertaken. The primary and key secondary endpoints were first analyzed with a global crossover MMRM analysis (using combined cohorts: 0.06 mg + 1 mg).

[2] = Self-administration of WIN 55,212-2, mice
[3] = global crossover, 0.06 mg, 20 min after THC
[4] = global crossover, 0.06 mg, 40 min after THC
[5] = global crossover, 0.06 mg, 60 min after THC
[6] = global crossover, 0.06 mg, 90 min after THC
[7] = global crossover, 0.06 mg, 105 min after THC
[8] = global crossover, 1 mg, 20 min after THC
[9] = global crossover, 1 mg, 40 min after THC
[10] = global crossover, 1 mg, 60 min after THC
[11] = global crossover, 1 mg, 90 min after THC
[12] = global crossover, 1 mg, 105 min after THC
[13] = parallel group (period A), 0.06 mg, 20 min after THC
[14] = parallel group (period A), 0.06 mg, 40 min after THC
[15] = parallel group (period A), 0.06 mg, 60 min after THC
[16] = parallel group (period A), 0.06 mg, 90 min after THC
[17] = parallel group (period A), 0.06 mg, 105 min after THC
[18] = parallel group (period A), 1 mg, 20 min after THC
[19] = parallel group (period A), 1 mg, 40 min after THC
[20] = parallel group (period A), 1 mg, 60 min after THC
[21] = parallel group (period A), 1 mg, 90 min after THC
[22] = parallel group (period A), 1 mg, 105 min after THC

COc1ccc(CO[C@H]2CC[C@@]3(C)C(=CC[C@H]4[C@@H]5CC[C@H](C(C)=O)[C@@]5(C)CC[C@@H]43)C2)cc1 [AEF0117, 3β-(4-methoxybenzyloxy)pregn-5-en-20-one]
% Inhibition (CD-1 Swiss male mice; [2]): 80% | ID50 (CD-1 Swiss male mice; [2]): 0.005 mg/kg | ID100 (CD-1 Swiss male mice; [2]): 0.015 mg/kg | i.v. self-administration of WIN55,212-2 (CD-1 Swiss male mice; mice, 15 µg kg^−1 oral): significantly reduced | AUC [1]: 41600 ng·h/mL | Cmax [1]: 4360 ng/mL | cannabis ratings (volunteers with CUD; 0.06 mg, parallel group analysis, period A): significant reduction | 'Felt Good Cannabis Effect' item on the CRF (volunteers with CUD; 1 mg, global crossover MMRM): significantly reduced | ratings on the 'Intoxication' subscale of the 44-item VAS (volunteers with CUD; 1 mg, global crossover MMRM): significantly reduced | reduction of cannabis' positive subjective effects compared to placebo (volunteers with CUD; 0.06 mg): 19% | reduction of cannabis' positive subjective effects compared to placebo (volunteers with CUD; 1 mg): 38% | Cannabis cigarette liking item, mean (volunteers with CUD; [3]): 76.2 mm | Felt good cannabis effect item, mean (volunteers with CUD; [3]): 77.9 mm | Intoxication subscale, mean (volunteers with CUD; [3]): 63.7 mm | Cannabis cigarette liking item, mean (volunteers with CUD; [4]): 74.9 mm | Felt good cannabis effect item, mean (volunteers with CUD; [4]): 76.1 mm | Intoxication subscale, mean (volunteers with CUD; [4]): 58.8 mm | Cannabis cigarette liking item, mean (volunteers with CUD; [5]): 72.6 mm | Felt good cannabis effect item, mean (volunteers with CUD; [5]): 72.7 mm | Intoxication subscale, mean (volunteers with CUD; [5]): 53.9 mm | Cannabis cigarette liking item, mean (volunteers with CUD; [6]): 73.5 mm | Felt good cannabis effect item, mean (volunteers with CUD; [6]): 75.8 mm | Intoxication subscale, mean (volunteers with CUD; [6]): 47.1 mm | Cannabis cigarette liking item, mean (volunteers with CUD; [7]): 73.2 mm | Felt good cannabis effect item, mean (volunteers with CUD; [7]): 75.0 mm | Intoxication subscale, mean (volunteers with CUD; [7]): 44.4 mm | Cannabis cigarette liking item, mean (volunteers with CUD; [8]): 61.7 mm | Felt good cannabis effect item, mean (volunteers with CUD; [8]): 66.8 mm | Intoxication subscale, mean (volunteers with CUD; [8]): 66.8 mm | Cannabis cigarette liking item, mean (volunteers with CUD; [9]): 57.8 mm | Felt good cannabis effect item, mean (volunteers with CUD; [9]): 62.4 mm | Intoxication subscale, mean (volunteers with CUD; [9]): 61.5 mm | Cannabis cigarette liking item, mean (volunteers with CUD; [10]): 54.8 mm | Felt good cannabis effect item, mean (volunteers with CUD; [10]): 58.0 mm | Intoxication subscale, mean (volunteers with CUD; [10]): 57.2 mm | Cannabis cigarette liking item, mean (volunteers with CUD; [11]): 54.0 mm | Felt good cannabis effect item, mean (volunteers with CUD; [11]): 56.1 mm | Intoxication subscale, mean (volunteers with CUD; [11]): 48.2 mm | Cannabis cigarette liking item, mean (volunteers with CUD; [12]): 54.4 mm | Felt good cannabis effect item, mean (volunteers with CUD; [12]): 54.7 mm | Intoxication subscale, mean (volunteers with CUD; [12]): 43.7 mm | Cannabis cigarette liking item, mean (volunteers with CUD; [13]): 68.3 mm | Felt good cannabis effect item, mean (volunteers with CUD; [13]): 73.0 mm | Intoxication subscale, mean (volunteers with CUD; [13]): 57.1 mm | Cannabis cigarette liking item, mean (volunteers with CUD; [14]): 65.5 mm | Felt good cannabis effect item, mean (volunteers with CUD; [14]): 70.2 mm | Intoxication subscale, mean (volunteers with CUD; [14]): 50.9 mm | Cannabis cigarette liking item, mean (volunteers with CUD; [15]): 62.3 mm | Felt good cannabis effect item, mean (volunteers with CUD; [15]): 65.7 mm | Intoxication subscale, mean (volunteers with CUD; [15]): 44.4 mm | Cannabis cigarette liking item, mean (volunteers with CUD; [16]): 61.8 mm | Felt good cannabis effect item, mean (volunteers with CUD; [16]): 67.4 mm | Intoxication subscale, mean (volunteers with CUD; [16]): 38.0 mm | Cannabis cigarette liking item, mean (volunteers with CUD; [17]): 63.1 mm | Felt good cannabis effect item, mean (volunteers with CUD; [17]): 68.2 mm | Intoxication subscale, mean (volunteers with CUD; [17]): 37.8 mm | Cannabis cigarette liking item, mean (volunteers with CUD; [18]): 63.9 mm | Felt good cannabis effect item, mean (volunteers with CUD; [18]): 67.9 mm | Intoxication subscale, mean (volunteers with CUD; [18]): 67.0 mm | Cannabis cigarette liking item, mean (volunteers with CUD; [19]): 59.3 mm | Felt good cannabis effect item, mean (volunteers with CUD; [19]): 60.6 mm | Intoxication subscale, mean (volunteers with CUD; [19]): 58.9 mm | Cannabis cigarette liking item, mean (volunteers with CUD; [20]): 54.5 mm | Felt good cannabis effect item, mean (volunteers with CUD; [20]): 53.3 mm | Intoxication subscale, mean (volunteers with CUD; [20]): 54.5 mm | Cannabis cigarette liking item, mean (volunteers with CUD; [21]): 55.7 mm | Felt good cannabis effect item, mean (volunteers with CUD; [21]): 50.7 mm | Intoxication subscale, mean (volunteers with CUD; [21]): 45.5 mm | Cannabis cigarette liking item, mean (volunteers with CUD; [22]): 55.9 mm | Felt good cannabis effect item, mean (volunteers with CUD; [22]): 52.3 mm | Intoxication subscale, mean (volunteers with CUD; [22]): 40.8 mm
